Reference: patent US20190133968A1, “Applications of benzophenones in preparation of drug” (SHANXI MEDICAL UNIVERSITY, priority 2016, published 2019)

How the values were obtained:
DN rats = test: type II diabetic nephropathy (DN) rat model (high-sugar high-fat diet + streptozocin); format: in vivo, SD (Sprague Dawley) rats; conditions: DN rats, captopril 15 mg/kg, gavage, 6 weeks
Method: (§1) The solid dispersions are prepared through a solvent method, comprising steps of: respectively precisely weighing LM49, PVPK30 and tween80 with a weight ratio of 1:5:1, and A8, PVPK30 and tween80 with a weight ratio of 1:4:1; dissolving with appropriate absolute ethyl alcohol, continuously stirring, and uniformly mixing; placing on the water bath at 60° C., evaporating and removing the absolute ethyl alcohol, and obtaining a viscous material; placing in the freezer at −20° C., and freezing for 2 hours; taking out from the freezer, then placing in the vacuum drying oven, and drying for 24 hours; after becoming embrittlement, smashing and sieving with a sieve of 80 meshes, and then placing in the dryer for storage.
The healthy adult male SD rats (having a weight of 180-220 g) are fed with the high-sugar and high-fat diet for 4 weeks; the rats are fasting overnight; and streptozocin (STZ) of 40 mg/kg is intraperitoneally injected into the rats. The rats of normal control group are injected with the sodium citrate buffer of same volume; 72 hours later, the rats are fasting for 12 hours. […] During the administration period, the successfully established model rats are still fed with the high-sugar and high-fat diet, while the rats of the normal control group are fed with the normal diet.
After administration for 6 weeks, 6-hour urine of the rats is collected with the metabolism cage.
The rats are fasting overnight and anesthetized intraperitoneally, then the abdominal aorta blood thereof is drawn for measuring the related indexes. The two kidneys of each rat are washed with the normal saline; weights of the kidneys are recorded; and the kidney coefficient (weights of two kidneys/body weight) is calculated. The renal tissues (comprising the glomerulus and renal tubules) at the same part of the left kidney are cut lengthwise and immersed in the 10% neutral formalin for pathomorphology analysis, and the other parts of the left kidney are used for biochemical index measurement; the right kidney is used for mechanism research and stored in the freezer at −80° C.
After successfully establishing the model rats, expect the normal control group (ten rats), the remaining rats are randomly divided into eight groups, wherein each group has twelve rats. The eight groups are respectively the model group, the LM49 solid dispersion low-dose group (with the drug concentration of 3 mg/kg), the LM49 solid dispersion medium-dose group (with the drug concentration of 9 mg/kg), the LM49 solid dispersion high-dose group (with the drug concentration of 27 mg/kg), the A8 solid dispersion low-dose group (with the drug concentration of 3 mg/kg), the A8 solid dispersion medium-dose group (with the drug concentration of 9 mg/kg), the A8 solid dispersion high-dose group (with the drug concentration of 27 mg/kg), and the captopril control group (with the drug concentration of 15 mg/kg).
Administration Way: By Gavage.
The rats of the normal control group and the model group are administrated with the normal saline of 1.0 ml/100 g; the rats of the positive control group, the LM49 solid dispersion high-dose, medium-dose and low-dose groups and the A8 solid dispersion high-dose, medium-dose and low-dose groups are respectively administrated with the drugs of different concentrations, and the administration volume is 1.0 ml/100 g.
The solid dispersions are dissolved by the normal saline; and the rats of the positive control group are administrated with the 0.5% CMC-Na (sodium carboxymethyl cellulose) suspension.
The rats are administrated seven days a week, for totally six weeks.
The IBM SPSS Statistics 20 software is used for data processing, and the data is represented in x±s. The one-way analysis of variance (ANOVA) is adopted for comparison among the groups. According to the homogeneity test results of variance, if the variance is equal, the LSD (least significant difference) test is adopted; if the variance is unequal, the Dunnett's T3 test is adopted. […]

chronic nephritis rats = test: chronic nephritis rat model (passive Heymann nephritis); format: in vivo, SD rats; conditions: dexamethasone 0.1 mg/kg, gavage; for IL-1α / IL-1β / IL-6 / IL-10 / Scr: serum
Method: as §1
The passive Heymann nephritis is the classic model for researching the human chronic nephrosis. Thus, the present invention researches the effects of the two disclosed compounds on preventing the chronic nephritis with the model.
Ninety male SD rats having a weight of 180-220 g are selected, wherein: ten rats are selected as a blank group, and the remaining rats are used for preparing the rat Heymann nephritis models according to the method (disclosed in Journal of Proteomics, 2012, 75(3): pages 3866-3876). The successively established model rats are randomly divided into the model group, the positive control group (dexamethasone with a concentration of 0.1 mg/kg), the LM49 solid dispersion low-dose group (with the drug concentration of 3 mg/kg), the LM49 solid dispersion medium-dose group (with the drug concentration of 9 mg/kg), the LM49 solid dispersion high-dose group (with the drug concentration of 27 mg/kg), the A8 solid dispersion low-dose group (with the drug concentration of 3 mg/kg), the A8 solid dispersion medium-dose group (with the drug concentration of 9 mg/kg), and the A8 solid dispersion high-dose group (with the drug concentration of 27 mg/kg).
The rats of the blank group and the model group are administrated with the normal saline of same volume, and the rats of the other groups are respectively administrated with the drugs of the corresponding dose, by gavage, every day from model establishment for four weeks.
The blood of the rats of all groups is drawn at the second week and the fourth week from model establishment and 24-hour urine thereof is collected, for respectively measuring the contents of the urinary albumin, serum creatinine (Scr) in the serum, BUN, IL-1α, IL-1β, IL-6 and IL-10.
The data is represented in mean±(standard deviation) (x±s) and processed with the SPSS 19.0 statistical software. The one-way analysis of variance (ANOVA) is adopted for comparison among the groups, and then the LSD-Test is adopted for pairwise comparison. The differences of P<0.05 and P<0.01 are statistically significant.

[1] = test system: Escherichia coli ATCC25922 standard strain; test: urinary and renal bacterial culture of acute pyelonephritis rats; format: in vivo, SD rats; conditions: norfloxacin 66.7 mg/kg, gavage, 10 days
Method: Ninety male SD rats having a weight of 180-220 g are selected, wherein: ten rats are selected as a sham-operated group (only being processed with ligation, without injecting with Escherichia coli), and the remaining rats are injected with Escherichia coli ATCC25922 standard strain having a concentration of 10^8/ml according to the method (disclosed in the Chinese Journal of Laboratory Animal Science, 1998, 8(1): pages 31-34) for preparing the acute pyelonephritis model rats.
After three days, urine of the rats is collected for bacterial culture, and the growth situation of the bacteria is observed. If the result is positive, the model rats are successively established; the unqualified rats are excluded, and the operation is made again for complementing the rats. The successively established model rats are randomly divided into the model group, the norfloxacin group (66.7 mg/kg), the LM49 solid dispersion low-dose group (with the drug concentration of 3 mg/kg), the LM49 solid dispersion medium-dose group (with the drug concentration of 9 mg/kg), the LM49 solid dispersion high-dose group (with the drug concentration of 27 mg/kg), the A8 solid dispersion low-dose group (with the drug concentration of 3 mg/kg), the A8 solid dispersion medium-dose group (with the drug concentration of 9 mg/kg), and the A8 solid dispersion high-dose group (with the drug concentration of 27 mg/kg).
The rats of the sham-operated group and the model group are administrated with the normal saline of same volume by gavage, and the rats of the other groups are respectively administrated with the drugs of the corresponding dose, once a day for consecutive ten days.
After finishing administration, urine of the rats of all groups is collected (for observing the bacterial growth situation). The abdominal aorta blood of the rats is drawn (for measuring the blood routine, CD4/CD8, urine creatinine and serum creatinine in the serum; and for measuring contents of IL-1α, IL-1β, IL-6, IL-10 and MCP-1 in the serum with the ELISA method). Two kidneys of each rat are cut (wherein a part is homogenated for bacterial culture, and the other part is used for observing the pathomorphology change).

C[C@H](CS)C(=O)N1CCC[C@H]1C(=O)O [captopril, reference compound]
BUN (DN rats): 10.91 ± 1.15 mmol/L
CREA (DN rats): 52.15 ± 3.40 µmol/L
Glycated hemoglobin (DN rats): 8.88 ± 0.55%
Urinary protein (DN rats; 6-hour urine): 5.93 ± 1.59^□□ mg/6 h
mALB (microalbumin in urine) (DN rats; 6-hour urine): 76.69 ± 7.69^□□ μg/6 h
ICAM-1 (DN rats; renal tissues): 246.36 ± 49.25 pg/mgprog
IL-1β (DN rats; renal tissues): 102.32 ± 22.70 pg/mgprog
IL-6 (DN rats; renal tissues): 107.50 ± 20.22^□□ pg/mgprog
MDA (DN rats; renal tissues): 1.04 ± 0.24 nmol/mgprog
NF-κB (DN rats; renal tissues): 174.49 ± 45.87^□□ pg/mgprog
SOD (DN rats; renal tissues): 4.42 ± 0.94 U/mgprog
T-AOC (DN rats; renal tissues): 1.48 ± 0.41 U/mgprog
TGF-β1 (DN rats; renal tissues): 36.72 ± 11.42^□□ pg/mgprot
TNF-α (DN rats; renal tissues): 292.79 ± 81.62^□ pg/mgprog
VCAM-1 (DN rats; renal tissues): 23.79 ± 3.50 pg/mgprog
Glucose (GLU) (DN rats; serum): 16.66 ± 4.34^□□ mmol/L
HDL-C (DN rats; serum): 1.19 ± 0.35 mmol/L
LDL-C (DN rats; serum): 1.80 ± 0.27^□□ mmol/L
TC (DN rats; serum): 3.06 ± 0.43^□□ mmol/L
TG (DN rats; serum): 0.37 ± 0.09^□□ mmol/L
UA (DN rats; serum): 49.00 ± 3.24^□□ μmol/L
Kidney coefficient (DN rats; weights of two kidneys/body weight): 1.02 ± 0.06%

C[C@@H]1C[C@H]2[C@@H]3CCC4=CC(=O)C=C[C@]4(C)[C@@]3(F)[C@@H](O)C[C@]2(C)[C@@]1(O)C(=O)CO [Dexamethasone, dexamethasone, reference compound]
24-hour urinary protein quantitation (chronic nephritis rats; Fourth week): 19.99 ± 3.5^ΔΔ mg/24 h
24-hour urinary protein quantitation (chronic nephritis rats; Second week): 20.87 ± 4.4^Δ mg/24 h
IL-1α (chronic nephritis rats; Fourth week): 9.33 ± 4.22^Δ pg/ml
IL-1β (chronic nephritis rats; Fourth week): 163.44 ± 59.31^Δ pg/ml
IL-6 (chronic nephritis rats; Fourth week): 61.31 ± 25.66^ΔΔ pg/ml
IL-10 (chronic nephritis rats; Fourth week): 29.44 ± 59.31^ΔΔ pg/ml
Scr (chronic nephritis rats; Fourth week): 44.32 ± 13.3 µmol/L
IL-1α (chronic nephritis rats; Second week): 10.47 ± 2.45^Δ pg/ml
IL-1β (chronic nephritis rats; Second week): 184.55 ± 57.22^Δ pg/ml
IL-6 (chronic nephritis rats; Second week): 87.01 ± 31.44^ΔΔ pg/ml
IL-10 (chronic nephritis rats; Second week): 51.09 ± 7.55 pg/mL
Scr (chronic nephritis rats; Second week): 46.22 ± 10.4 µmol/L

CCn1cc(C(=O)O)c(=O)c2cc(F)c(N3CCNCC3)cc21 [Norfloxacin, norfloxacin, reference compound]
Renal bacterial culture score ([1]; mean score, scale 1-4 of Table 10 (colony number <10, >10, >100, >1000)): 1.2 ± 0.42^ΔΔ
Urinary bacterial A value (OD600 nm) ([1]; urine culture): 0.254 ± 0.082^ΔΔ
